{"source": "patent US20050089471A1", "about": "“Labeled ligands for lectin-like oxidized low-density lipoprotein receptor (LOX-1)” (priority 2003, published 2005)", "test_system": "human endothelial coronary artery cells (HCAECs) which are known in the literature to express LOX-1", "test": "Fluorescent confocal imaging of labeled peptide bound to HCAECs", "type": "cell-based", "details": "HCAECs grown in glass slides, fluorescent confocal microscope, FIG. 2", "experimental": "Images in the assay may be acquired using a laser confocal microscope or an Imager. For example, images of peptides bound to cells can be obtained using a laser confocal microscope as follows: HCAE cells can be grown on high quality borosilicate 8-chambered glass slides (Electron Microscopy Sciences, Fort Washington, Pa.). Then, about 10 μL of 1 mg/ml of an aqueous solution of a labeled peptide can be added to the cells and incubated for 1 hour. Subsequently, the cells preferably are washed with HBSS buffer three times. The cells then can be fixed with 4% formaldehyde solution over 10 minutes. After a final wash with buffer, the slide is imaged. Images preferably are acquired using an OLYMPUS laser scanning confocal microscope, model Fluoview 300, using Ar-ion laser (selecting 488 nm line) and a 510-nm long-pass filter. Images can be acquired using two channels: reflected light and fluorescent mode channel, or an overlay of both channels.\nThe experimental conditions for imaging the peptide-labeled HCAECs are described previously.", "note": "Where no end group is shown, it is not given here. fluorescein = fluorescein (Fl)", "data": [{"substance": "Fl-KKGG-FQTPPQL (fluorescein-KKGGFQTPPQL) [peptide FQTPPQL conjugated with fluorescein via KKGG linker]", "values": [{"measurement": "binding to / localization on HCAECs (fluorescent image)", "value": "shown to bind"}]}]}
